Experimental data as given in the supplement of paper PMC10733146.

What was measured:
Assay in all cases: viability relative to DMSO control (fraction); higher = less drug effect (more viable cells)
Settings in all cases: 48 h
[1] = test system: primary T-PLL patient cells (S008)
Procedure, shortened: (§1)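 The cells were primary mononuclear tumour cells, either fresh or cryopreserved, isolated by Ficoll from blood or bone marrow or derived from processed lymph node. Each well of a 384-well plate received 4 × 10^4 cells onto compounds pre-plated at five concentrations, with one well per concentration. The medium was RPMI-1640 with penicillin/streptomycin, L-glutamine and human serum, and plates stood at 37 °C and 5% CO2 for 48 h. Viability is reported as CellTiter-Glo luminescence relative to the median of 16 inner DMSO wells.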

[2] = test system: primary AML patient cells (S081)
Procedure, shortened: as §1

[3] = test system: primary AML patient cells (S006)
Procedure, shortened: as §1

[4] = test system: primary CLL patient cells (S031)
Procedure, shortened: as §1

[5] = test system: primary AML patient cells (S011)
Procedure, shortened: as §1

[6] = test system: primary CLL patient cells (S043)
Procedure, shortened: as §1

[7] = test system: primary MCL patient cells (S041)
Procedure, shortened: as §1

[8] = test system: primary BL patient cells (S005)
Procedure, shortened: as §1

[9] = test system: primary AML patient cells (S012)
Procedure, shortened: as §1

[10] = test system: primary MCL patient cells (S068)
Procedure, shortened: as §1

[11] = test system: primary MCL patient cells (S063)
Procedure, shortened: as §1

[12] = test system: primary AML patient cells (S037)
Procedure, shortened: as §1

[13] = test system: primary AML patient cells (S056)
Procedure, shortened: as §1

[14] = test system: primary AML patient cells (S085)
Procedure, shortened: as §1

Q: For `N#Cc1ccnc(N2C(=O)CC[C@H]2C(=O)N(c2cncc(F)c2)[C@H](C(=O)NC2CC(F)(F)C2)c2ccccc2Cl)c1` [AG-120], which viability ([1]; 0.024 µM) is on record?
A: Its viability is 1.04.

Q: And the viability ([1]; 0.12 µM)?
A: The viability was 1.09.

Q: And the viability ([1]; 0.6 µM)?
A: Its viability is 1.03.

Q: And the viability ([1]; 3 µM)?
A: Its viability is 1.04.

Q: What about the viability ([1]; 15 µM) of the same compound?
A: Its viability is 1.02.

Q: And the viability ([2]; 0.024 µM)?
A: Its viability is 0.994.

Q: And the viability ([2]; 0.12 µM)?
A: Its viability is 1.01.

Q: And the viability ([2]; 0.6 µM)?
A: Its viability is 0.925.

Q: What about the viability ([2]; 3 µM) of the same compound?
A: The viability was 1.11.

Q: What about the viability ([2]; 15 µM) of the same compound?
A: The viability was 0.968.

Q: What about the viability ([3]; 0.024 µM) of the same compound?
A: The viability was 1.07.

Q: What about the viability ([3]; 0.12 µM) of the same compound?
A: The viability was 1.13.

Q: What about the viability ([3]; 0.6 µM) of the same compound?
A: Its viability is 0.986.

Q: What about the viability ([3]; 3 µM) of the same compound?
A: The viability was 1.08.

Q: What about the viability ([3]; 15 µM) of the same compound?
A: Its viability is 0.901.

Q: What about the viability ([4]; 0.024 µM) of the same compound?
A: Its viability is 0.982.

Q: And the viability ([4]; 0.12 µM)?
A: Its viability is 0.912.

Q: And the viability ([4]; 0.6 µM)?
A: Its viability is 0.773.

Q: And the viability ([4]; 3 µM)?
A: The viability was 0.807.

Q: And the viability ([4]; 15 µM)?
A: The viability was 0.715.

Q: What about the viability ([5]; 0.024 µM) of the same compound?
A: The viability was 1.76.

Q: What about the viability ([5]; 0.12 µM) of the same compound?
A: The viability was 0.843.

Q: What about the viability ([5]; 0.6 µM) of the same compound?
A: Its viability is 0.852.

Q: What about the viability ([5]; 3 µM) of the same compound?
A: The viability was 0.785.

Q: And the viability ([5]; 15 µM)?
A: The viability was 0.657.

Q: What about the viability ([6]; 0.024 µM) of the same compound?
A: Its viability is 0.819.

Q: What about the viability ([6]; 0.12 µM) of the same compound?
A: Its viability is 0.925.

Q: And the viability ([6]; 0.6 µM)?
A: The viability was 0.925.

Q: And the viability ([6]; 3 µM)?
A: The viability was 0.91.

Q: What about the viability ([6]; 15 µM) of the same compound?
A: Its viability is 0.837.

Q: What about the viability ([7]; 0.024 µM) of the same compound?
A: The viability was 0.99.

Q: What about the viability ([7]; 0.12 µM) of the same compound?
A: Its viability is 1.01.

Q: And the viability ([7]; 0.6 µM)?
A: Its viability is 0.928.

Q: And the viability ([7]; 3 µM)?
A: Its viability is 1.

Q: What about the viability ([7]; 15 µM) of the same compound?
A: Its viability is 0.886.

Q: And the viability ([8]; 0.024 µM)?
A: Its viability is 0.99.

Q: And the viability ([8]; 0.12 µM)?
A: Its viability is 1.02.

Q: And the viability ([8]; 0.6 µM)?
A: The viability was 1.43.

Q: And the viability ([8]; 3 µM)?
A: The viability was 1.01.

Q: What about the viability ([8]; 15 µM) of the same compound?
A: The viability was 1.31.

Q: What about the viability ([9]; 0.024 µM) of the same compound?
A: Its viability is 1.03.

Q: And the viability ([9]; 0.12 µM)?
A: The viability was 1.06.

Q: What about the viability ([9]; 0.6 µM) of the same compound?
A: Its viability is 1.04.

Q: And the viability ([9]; 3 µM)?
A: The viability was 0.987.

Q: And the viability ([9]; 15 µM)?
A: Its viability is 0.985.

Q: What about the viability ([10]; 0.024 µM) of the same compound?
A: Its viability is 0.995.

Q: What about the viability ([10]; 0.12 µM) of the same compound?
A: The viability was 1.02.

Q: What about the viability ([10]; 0.6 µM) of the same compound?
A: The viability was 0.898.

Q: And the viability ([10]; 3 µM)?
A: Its viability is 1.05.

Q: And the viability ([10]; 15 µM)?
A: The viability was 1.18.

Q: What about the viability ([11]; 0.024 µM) of the same compound?
A: The viability was 1.16.

Q: And the viability ([11]; 0.12 µM)?
A: Its viability is 1.1.

Q: And the viability ([11]; 0.6 µM)?
A: The viability was 0.929.

Q: And the viability ([11]; 3 µM)?
A: Its viability is 1.15.

Q: What about the viability ([11]; 15 µM) of the same compound?
A: The viability was 0.789.

Q: What about the viability ([12]; 0.024 µM) of the same compound?
A: Its viability is 1.04.

Q: What about the viability ([12]; 0.12 µM) of the same compound?
A: Its viability is 1.04.

Q: And the viability ([12]; 0.6 µM)?
A: The viability was 0.952.

Q: And the viability ([12]; 3 µM)?
A: Its viability is 1.01.

Q: What about the viability ([12]; 15 µM) of the same compound?
A: The viability was 0.888.

Q: What about the viability ([13]; 0.024 µM) of the same compound?
A: Its viability is 0.866.

Q: And the viability ([13]; 0.12 µM)?
A: Its viability is 0.833.

Q: What about the viability ([13]; 0.6 µM) of the same compound?
A: The viability was 0.72.

Q: And the viability ([13]; 3 µM)?
A: Its viability is 0.74.

Q: What about the viability ([13]; 15 µM) of the same compound?
A: Its viability is 0.577.

Q: What about the viability ([14]; 0.024 µM) of the same compound?
A: The viability was 1.07.

Q: What about the viability ([14]; 0.12 µM) of the same compound?
A: The viability was 1.

Q: And the viability ([14]; 0.6 µM)?
A: Its viability is 0.959.

Q: What about the viability ([14]; 3 µM) of the same compound?
A: Its viability is 1.03.

Q: What about the viability ([14]; 15 µM) of the same compound?
A: The viability was 0.886.

Q: What does the source list for `Nc1ncn([C@@H]2O[C@H](CO)[C@@H](O)[C@H]2O)c(=O)n1` [Azacytidine (Vidaza)]?
A: viability ([1]; 0.032 µM): 0.965; viability ([1]; 0.16 µM): 1.02; viability ([1]; 0.8 µM): 0.988; viability ([1]; 4 µM): 0.704; viability ([1]; 20 µM): 0.289; viability ([2]; 0.032 µM): 0.955; viability ([2]; 0.16 µM): 1.08; viability ([2]; 0.8 µM): 1.04; viability ([2]; 4 µM): 0.951; viability ([2]; 20 µM): 0.832; viability ([3]; 0.032 µM): 1.07; viability ([3]; 0.16 µM): 0.973; viability ([3]; 0.8 µM): 0.426; viability ([3]; 4 µM): 0.0789; viability ([3]; 20 µM): 0.0614; viability ([4]; 0.032 µM): 1.08; viability ([4]; 0.16 µM): 1.01; viability ([4]; 0.8 µM): 0.989; viability ([4]; 4 µM): 0.539; viability ([4]; 20 µM): 0.0698; viability ([5]; 0.032 µM): 1.05; viability ([5]; 0.16 µM): 1.29; viability ([5]; 0.8 µM): 0.811; viability ([5]; 4 µM): 0.32; viability ([5]; 20 µM): 0.134; viability ([6]; 0.032 µM): 0.937; viability ([6]; 0.16 µM): 1.11; viability ([6]; 0.8 µM): 0.889; viability ([6]; 4 µM): 0.716; viability ([6]; 20 µM): 0.55; viability ([7]; 0.032 µM): 1.04; viability ([7]; 0.16 µM): 1.03; viability ([7]; 0.8 µM): 0.812; viability ([7]; 4 µM): 0.151; viability ([7]; 20 µM): 0.0515; viability ([8]; 0.032 µM): 0.847; viability ([8]; 0.16 µM): 0.862; viability ([8]; 0.8 µM): 0.841; viability ([8]; 4 µM): 0.766; viability ([8]; 20 µM): 0.708; viability ([9]; 0.032 µM): 0.958; viability ([9]; 0.16 µM): 1.01; viability ([9]; 0.8 µM): 1.04; viability ([9]; 4 µM): 0.92; viability ([9]; 20 µM): 0.766; viability ([10]; 0.032 µM): 0.969; viability ([10]; 0.16 µM): 1.04; viability ([10]; 0.8 µM): 0.798; viability ([10]; 4 µM): 0.325; viability ([10]; 20 µM): 0.232; viability ([11]; 0.032 µM): 1.04; viability ([11]; 0.16 µM): 1.07; viability ([11]; 0.8 µM): 1.03; viability ([11]; 4 µM): 0.839; viability ([11]; 20 µM): 0.173; viability ([12]; 0.032 µM): 1; viability ([12]; 0.16 µM): 1.01; viability ([12]; 0.8 µM): 0.901; viability ([12]; 4 µM): 0.7; viability ([12]; 20 µM): 0.595; viability ([13]; 0.032 µM): 0.987; viability ([13]; 0.16 µM): 0.997; viability ([13]; 0.8 µM): 0.467; viability ([13]; 4 µM): 0.0878; viability ([13]; 20 µM): 0.078; viability ([14]; 0.032 µM): 1.22; viability ([14]; 0.16 µM): 0.976; viability ([14]; 0.8 µM): 0.638; viability ([14]; 4 µM): 0.14; viability ([14]; 20 µM): 0.0812
